Results: patent publication US5672597A, “Acetamide derivative” (Kaken Pharmaceutical Co., Ltd., priority 1992, dated 1997)

What was measured:
[1] = tested on: cure-prolonged ulcer induced by acetic acid; assay: Test of cure-prolonged ulcer induced by acetic acid; type: in vivo, wistar male rat; settings: rat, 50 mg/kg oral, twice a day; cure prolonged with indomethacin 1 mg/kg s.c. for 13 days
Method: (§1) With respect to anti-ulcer effect of the compounds having the general formula (I), there were carried out a test of ulcer induced by pylorus-ligation, which ulcer is induced mainly due to offensive factors; a test of ulcer induced by hydrochloric acid/ethanol, which ulcer is induced mainly due to defensive factors such as mucosal blood flow and mucus; and a test of ulcer induced by a stress of restraint plus water-immersion, which ulcer is induced due to both of offensive and defensive factors. Further, there were carried out a test of ulcer induced by acetic acid as a chronic ulcer model and a test of cure-prolonged ulcer induced by acetic acid. Also, there was examined an activity of increasing gastric mucosal blood flow, which activity brings about acceleration of regeneration of the gastric mucosa. As test compounds, hydrochloride salts were used.
Into the junction of the glandular stomach and the antrum, of a wistar male rat weighing 220 to 240 g, was injected subserosally 30 μl of 20% acetic acid to generate an ulcer induced by acetic acid. From 2 days after the generation of the ulcer, indomethacin was injected subcutaneously in the regions of back of the rat in a dose of 1 mg/kg, once a day for 13 days to prolong the cure of the ulcer induced by acetic acid.
Each of them was suspended in 0.5% methylcellulose solution, and administered orally in a dose of 50 mg/kg, twice a day (in the morning and in the evening) from 13 days, respectively. The animal was sacrificed by ether on the day after the last administration, and the stomach was taken out therefrom. The area of the ulcer was measured. The obtained results were subjected to the following formula to calculate a percentage of improvement for curing ulcer. To control group, only the medium for the medicament solution was administered in an amount of 0.5 ml/100 g (body weight). Twenty rats were used in each group for the test. [formula]

[2] = tested on: gastric mucosal blood flow; assay: Activity of increasing gastric mucosal blood flow; type: in vivo, wistar male rat; settings: rat, urethane-anesthesia, 220 μg/kg intravenous, 60 minutes after administration
Method: as §1
An amount of the mucosal blood flow in the body of the stomach of a wistar male rat weighing 220 to 240 g under urethane-anesthesia was measured by means of a laser doppler blood flow meter. As test compounds, there were used the compound of the present invention and, as comparative compound, FRG-8813. Each of them was intravenously administered in a dose of 220 μg/kg. A percentage of increase of the blood flow was calculated 60 minutes after the administration. Five rats were used for each group for the test.

[3] = tested on: ulcer induced by acetic acid; assay: Test of ulcer induced by acetic acid; type: in vivo, wistar male rat; settings: rat, 15 mg/kg oral, twice a day from 2 days after generation of the ulcer
Method: as §1
Into the junction of the glandular stomach and the antrum, of a wistar male rat weighing 220 to 240 g, was injected subserosally […] of 20% acetic acid to generate an ulcer induced by acetic acid. […] Each of them was suspended in 0.5% methylcellulose solution, and administered orally in a dose of 15 mg/kg, twice a day (in the morning and in the evening) from 2 days after the generation of the ulcer for days, respectively. The animal was sacrificed by ether on the day after the last administration, and the stomach was taken out therefrom. The area of the ulcer was measured.
The obtained results were subjected to the following formula to calculate a percentage of improvement for curing ulcer. To control group, only the medium for the medicament solution was administered in an amount of 0.5 ml/100 g (body weight). Twenty rats were used in each group for the test. [formula]

[4] = tested on: ulcer induced by a stress of restraint plus water-immersion; assay: Test of ulcer induced by a stress of restraint plus water-immersion; type: in vivo, ddY male mouse; settings: 7 h; mouse, 30 mg/kg oral, 15 minutes before the load of the stress; hydrochloride salts; read-out: Percentage of inhibition of ulcer formation
Method: as §1
A ddY male mouse weighing 20 to 25 g, which had fasted for 18 hours, was put into a stress cage, and was loaded with a stress by immersing it in a water tank at 23° C., to a level of a xiphoid. After 7 hours, the animal was sacrificed by dislocating the cervical vertebrae and the stomach was taken out therefrom. The length of the ulcer generated on the glandular stomach was measured and the total thereof was regarded as the ulcer coefficient (mm).
To control group, only the medium for the medicament solution was orally administered in an amount of 0.1 ml/10 g (body weight) 15 minutes before the load of the stress.
(§2) The obtained results were subjected to the same formula as in the test of ulcer induced by pylorus-ligation, to calculate a percentage of inhibition of ulcer formation. Six rats were used in each group for the test.

[5] = tested on: ulcer induced by pylorus-ligation; assay: Test of ulcer induced by pylorus-ligation; type: in vivo, wistar male rat; settings: 14 h; rat, 100 mg/kg, in the duodenum immediately after ligating the pylorus; hydrochloride salts; read-out: Percentage of inhibition of ulcer formation
Method: as §1
The pylorus of a wistar male rat weighing 230 to 250 g, which had fasted for 48 hours, was ligated under ether-anesthesia, according to a usual method. After 14 hours, the animal was sacrificed by ether and the stomach was taken out therefrom.
The area of the ulcer generated on the fore-stomach was measured and the total area of the ulcer per rat was classified into the following six grades to give ulcer coefficients (Table 4).
Each of them was suspended in 0.5% methylcellulose solution and administered in the duodenum immediately after ligating the pylorus, in a dose of 100 mg/kg (body weight), respectively. To control group, only the medium for the medicament solution was administered in an amount of 0.25 ml/100 g (body weight).
The obtained results were subjected to the following formula to calculate a percentage of inhibition of ulcer formation. Six rats were used in each group for the test: [formula]

[6] = tested on: ulcer induced by hydrochloric acid/ethanol; assay: Test of ulcer induced by hydrochloric acid/ethanol; type: in vivo, wistar male rat; settings: 1 h; rat, 30 mg/kg oral, 30 minutes before hydrochloric acid/ethanol; hydrochloride salts; read-out: Percentage of inhibition of ulcer formation
Method: as §1
To a wistar male rat weighing 220 to 240 g, which had fasted and thirsted for 24 hours, was orally administered 150 mM hydrochloric acid/70% ethanol solution in an amount of 5 ml/kg (body weight). After 1 hour, the animal was sacrificed by dislocating the cervical vertebrae and the stomach was taken out therefrom. The length of the ulcer generated on the glandular stomach was measured and the total thereof was regarded as the ulcer coefficient (mm).
To control group, only the medium for the medicament solution was orally administered in an amount of […] (body weight), 30 minutes before the administration of hydrochloric acid/ethanol.
as §2

| SMILES | Percentage of improvement for curing ulcer [1] [%] | Percentage of increase of blood flow [2] [%] | Percentage of improvement for curing ulcer [3] [%] | inhibition in vivo at 30 mg/kg [4] [%] | inhibition in vivo at 100 mg/kg [5] [%] | inhibition in vivo at 30 mg/kg [6] [%] |
| --- | --- | --- | --- | --- | --- | --- |
| CCOC(=O)NCC[S+]([O-])CC(=O)NC/C=C\COc1cccc(CN2CCCCC2)c1 (stereo not drawn) [Example 75, N-[4-[3-(piperidinomethyl)phenoxy]-cis-2-butenyl]-2-[2-(ethoxycarbonylamino)ethylsulfinyl]acetamide] | 49 | 15 | 24 | 87 | 96 | 82 |
| O=C(C[S+]([O-])Cc1ccco1)NC/C=C\COc1cc(CN2CCCCC2)ccn1 (stereo not drawn) [FRG-8813, reference compound] | -5 | 3 | 12 | 85 | 27 | 70 |
